From patent US20130065868A1, “ANXIOYTIC MARCGRAVIACEAE COMPOSITIONS CONTAINING BETULINIC ACID, BETULINIC ACID DERIVATIVES, AND METHODS” (UNIVERSITY OF OTTAWA, priority 2002, published 2013)
Where two headings read alike, the source gives them in different places.

How the values were obtained:
Sprague-Dawley rats = assay: Rat social interaction paradigm; assay type: in vivo; conditions: 0.5 mg/kg i.p.
From the text: The rat social interaction paradigm takes advantage of rats' natural behaviour in novel situations. The more ‘anxious’ the animals are, the less likely they are engage in social interaction with the cohort. Anxiolytic drugs typically increase the amount of time rodents spend socially interacting with one another. (Pile, S. E., (1980). The use of social interaction as a method for detecting anxiolytic activity of chlor-diazepoxide-like drugs. In Current Protocols in Neuroscience (pp. 8.3.3-8.3.4), John-Wiley & Sons).
The social-interaction (SI) test arena constituted of a 60×60 cm white Plexiglas floor, enclosed by 35-cm high walls of the same material. The arena was surrounded by black curtain, and a closed circuit camera was positioned above the setup, to feed live video signals to the experimenter seated in a separate room, for behavioral assessment and recording.
Each rat was placed alone in the SI box for 7.5 min daily for 2 days, in order to familiarize the animals with the test environment. Animals were paired according to their body weights (less than 10 g difference) and each pair was randomly assigned to one of the treatment groups. Rats received either betulinic acid 0.5 mg/kg i.p., betulinic acid methyl ester (methyl betulinate) 0.5 mg/kg i.p., or peanut oil only (control). Drugs were injected (i.p.) 60 min prior to testing. Tests were carried out at three intervals, 1 h, 2.5 h and 4 h after injection. Each pair was tested at the 1-h interval, then new pairs from within the same drug group were formed for the 2.5-h interval and then again at the 4-h interval (new pairs were formed for each test interval, to control for the potential confounding effect partner familiarity). […] The behaviors scored included the amount of time the pairs spent interacting together (sniffing, grooming and chasing) as well as the number of times the animals initiated contact.

Sprague Dawley rats = assay: Locomotor activity after chronic administration; assay type: in vivo, rat; conditions: chronic 0.5 mg/kg daily orally, one night 5 p.m. to 7 a.m. (FIG. 11)
Method: Test animals and drug treatments were as in Example 14. Locomotor activity was recorded for one night (5 p.m. to 7 a.m. the following morning) in the control as well as in the betulinic acid and methyl ester of betulinic acid exposed groups. Locomotor activity was monitored using infrared sensors located on the roof of the animals' cage. Eight independent sensors monitored activity of animals according to the number of quadrants traversed.

[1] = Acute or chronic toxicity at repeated doses; assay type: in vivo; conditions: 500 mg/kg vs anxiolytic dose
From the text: This is a dose 1000 times higher than that needed to reduce anxiety.

adrenergic α1 = assay: MDS Panlabs screen: adrenergic α1; assay type: binding; conditions: Catecholamines
Method: (§1) Tests were conducted by MDS Panlabs to determine whether any of the classical neurotransmitter systems or the peptidergic systems thought to play a role in anxiety are affected by betulinic acid.

adrenergic α2 = assay: MDS Panlabs screen: adrenergic α2; assay type: binding; conditions: Catecholamines
Method: as §1

COMT = COMT (Homo sapiens, UniProt P21964); assay: MDS Panlabs screen: COMT; assay type: biochemical; conditions: Catecholamines
Sequence of COMT (P21964 whole entry, species assumed): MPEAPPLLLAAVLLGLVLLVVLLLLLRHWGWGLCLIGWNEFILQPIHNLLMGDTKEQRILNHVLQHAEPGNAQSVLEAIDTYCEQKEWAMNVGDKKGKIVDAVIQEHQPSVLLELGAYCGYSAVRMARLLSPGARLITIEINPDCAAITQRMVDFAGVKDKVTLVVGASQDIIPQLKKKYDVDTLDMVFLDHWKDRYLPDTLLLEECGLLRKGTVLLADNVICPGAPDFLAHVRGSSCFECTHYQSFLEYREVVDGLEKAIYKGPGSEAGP
Method: as §1

NE transporter = NE transporter (Homo sapiens, UniProt P23975); assay: MDS Panlabs screen: NE transporter; assay type: binding; conditions: Catecholamines
Sequence of NE transporter (P23975 whole entry): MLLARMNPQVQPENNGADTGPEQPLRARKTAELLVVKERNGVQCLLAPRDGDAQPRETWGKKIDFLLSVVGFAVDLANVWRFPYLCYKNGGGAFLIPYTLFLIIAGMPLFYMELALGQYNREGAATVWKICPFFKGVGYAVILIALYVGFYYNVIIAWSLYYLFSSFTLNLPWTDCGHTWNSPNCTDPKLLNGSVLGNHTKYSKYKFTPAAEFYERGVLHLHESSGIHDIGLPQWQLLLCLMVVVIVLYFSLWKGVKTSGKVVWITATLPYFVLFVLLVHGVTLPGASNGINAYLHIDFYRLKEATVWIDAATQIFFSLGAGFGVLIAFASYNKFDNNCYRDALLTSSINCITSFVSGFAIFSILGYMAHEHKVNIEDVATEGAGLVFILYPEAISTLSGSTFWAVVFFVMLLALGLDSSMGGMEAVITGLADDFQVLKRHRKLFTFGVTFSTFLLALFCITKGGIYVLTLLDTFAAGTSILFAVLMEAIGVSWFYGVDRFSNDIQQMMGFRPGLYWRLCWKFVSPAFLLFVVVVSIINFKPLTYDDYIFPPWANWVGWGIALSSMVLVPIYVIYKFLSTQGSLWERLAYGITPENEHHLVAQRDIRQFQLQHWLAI
Method: as §1

domaine D1 = domaine D1 (Homo sapiens, UniProt P21728); assay: MDS Panlabs screen: D1; assay type: binding; conditions: Catecholamines
Sequence of domaine D1 (P21728 whole entry): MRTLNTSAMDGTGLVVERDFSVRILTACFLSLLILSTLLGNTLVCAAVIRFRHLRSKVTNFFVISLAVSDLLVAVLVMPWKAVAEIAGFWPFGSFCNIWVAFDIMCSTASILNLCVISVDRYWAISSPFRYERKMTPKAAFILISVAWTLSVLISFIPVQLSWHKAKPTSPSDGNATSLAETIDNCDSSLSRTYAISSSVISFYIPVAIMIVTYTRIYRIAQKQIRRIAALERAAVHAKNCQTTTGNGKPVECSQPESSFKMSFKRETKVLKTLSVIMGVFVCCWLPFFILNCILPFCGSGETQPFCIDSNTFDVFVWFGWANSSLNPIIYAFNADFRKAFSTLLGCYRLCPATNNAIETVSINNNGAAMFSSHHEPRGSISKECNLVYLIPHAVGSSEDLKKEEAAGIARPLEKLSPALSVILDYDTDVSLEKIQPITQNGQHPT
Method: as §1

DA transporter = DA transporter (Homo sapiens, UniProt Q01959); assay: MDS Panlabs screen: DA transporter; assay type: binding; conditions: Catecholamines
Method: as §1

GABA transporter = assay: MDS Panlabs screen: GABA transporter; assay type: binding; conditions: Gabaergic
Method: as §1

GABAA, BZP = assay: MDS Panlabs screen: GABAA, BZP; assay type: binding; conditions: Gabaergic
Method: as §1

GABA C1-channel = assay: MDS Panlabs screen: GABA channel; assay type: binding; conditions: Gabaergic
Method: as §1

Histamine H3 = Histamine H3 (Homo sapiens, UniProt Q9Y5N1); assay: MDS Panlabs screen: Histamine H3; assay type: binding
Sequence of Histamine H3 (Q9Y5N1 whole entry): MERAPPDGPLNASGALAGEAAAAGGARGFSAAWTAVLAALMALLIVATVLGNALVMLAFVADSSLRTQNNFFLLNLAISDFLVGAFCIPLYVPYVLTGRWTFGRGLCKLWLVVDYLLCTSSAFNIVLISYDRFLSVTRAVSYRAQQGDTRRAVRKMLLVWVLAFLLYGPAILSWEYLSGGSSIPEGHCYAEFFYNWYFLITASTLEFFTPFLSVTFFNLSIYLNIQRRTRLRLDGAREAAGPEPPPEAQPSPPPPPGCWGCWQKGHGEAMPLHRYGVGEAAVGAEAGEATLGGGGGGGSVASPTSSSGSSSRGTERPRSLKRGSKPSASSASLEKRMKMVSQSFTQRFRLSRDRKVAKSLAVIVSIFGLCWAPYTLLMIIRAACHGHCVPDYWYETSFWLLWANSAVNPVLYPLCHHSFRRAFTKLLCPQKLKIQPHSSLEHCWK
Method: as §1

5-HT1A = 5-HT1A (Homo sapiens, UniProt P08908); assay: MDS Panlabs screen: 5-HT1A; assay type: binding; conditions: Serotonin (5-HT)
Sequence of 5-HT1A (P08908 whole entry, species assumed): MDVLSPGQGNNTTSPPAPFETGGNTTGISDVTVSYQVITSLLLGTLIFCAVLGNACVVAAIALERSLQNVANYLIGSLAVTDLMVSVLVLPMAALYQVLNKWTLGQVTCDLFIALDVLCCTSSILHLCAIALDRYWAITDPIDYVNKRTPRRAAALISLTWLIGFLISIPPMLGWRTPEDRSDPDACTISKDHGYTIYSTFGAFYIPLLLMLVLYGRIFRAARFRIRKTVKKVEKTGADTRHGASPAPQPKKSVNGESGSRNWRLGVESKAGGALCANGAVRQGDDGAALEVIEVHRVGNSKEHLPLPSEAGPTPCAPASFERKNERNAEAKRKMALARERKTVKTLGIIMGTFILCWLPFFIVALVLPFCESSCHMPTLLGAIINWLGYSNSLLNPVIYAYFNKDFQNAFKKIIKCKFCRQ
Method: as §1

5-HT2 = assay: MDS Panlabs screen: 5-HT2; assay type: binding; conditions: Serotonin (5-HT)
Method: as §1

5-HT3 = 5-HT3 (Homo sapiens, UniProt P46098); assay: MDS Panlabs screen: 5-HT3; assay type: binding; conditions: Serotonin (5-HT)
Method: as §1

serotonin transporter = serotonin transporter (Homo sapiens, UniProt P31645); assay: MDS Panlabs screen: serotonin transporter; assay type: binding; conditions: Serotonin (5-HT)
Sequence of serotonin transporter (P31645 whole entry): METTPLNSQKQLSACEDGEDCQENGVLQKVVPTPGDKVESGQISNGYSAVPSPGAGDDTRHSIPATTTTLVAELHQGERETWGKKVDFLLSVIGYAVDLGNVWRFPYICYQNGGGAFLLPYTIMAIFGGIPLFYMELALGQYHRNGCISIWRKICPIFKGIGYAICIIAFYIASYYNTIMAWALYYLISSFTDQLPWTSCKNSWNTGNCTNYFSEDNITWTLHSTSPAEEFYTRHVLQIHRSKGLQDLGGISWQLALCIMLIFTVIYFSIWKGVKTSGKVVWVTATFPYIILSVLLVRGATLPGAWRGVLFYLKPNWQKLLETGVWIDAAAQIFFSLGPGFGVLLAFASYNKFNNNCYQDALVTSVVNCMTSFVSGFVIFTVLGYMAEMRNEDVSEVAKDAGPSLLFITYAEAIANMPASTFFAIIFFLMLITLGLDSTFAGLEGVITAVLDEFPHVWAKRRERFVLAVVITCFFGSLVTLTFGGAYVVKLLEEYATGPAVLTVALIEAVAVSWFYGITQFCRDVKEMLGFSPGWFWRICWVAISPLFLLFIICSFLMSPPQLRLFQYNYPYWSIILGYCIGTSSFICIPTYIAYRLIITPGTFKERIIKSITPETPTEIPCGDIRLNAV
Method: as §1

muscarinic non-selective = assay: MDS Panlabs screen: muscarinic non-selective; assay type: binding; conditions: Acetylcholine
Method: as §1

nicototinic = assay: MDS Panlabs screen: nicotinic; assay type: binding; conditions: Acetylcholine
Method: as §1

bombesin = assay: MDS Panlabs screen: bombesin; assay type: binding; conditions: Peptides
Method: as §1

cannabinoid CB2 = cannabinoid CB2 (Homo sapiens, UniProt P34972); assay: MDS Panlabs screen: cannabinoid CB2; assay type: binding; conditions: Peptides
Sequence of cannabinoid CB2 (P34972 whole entry): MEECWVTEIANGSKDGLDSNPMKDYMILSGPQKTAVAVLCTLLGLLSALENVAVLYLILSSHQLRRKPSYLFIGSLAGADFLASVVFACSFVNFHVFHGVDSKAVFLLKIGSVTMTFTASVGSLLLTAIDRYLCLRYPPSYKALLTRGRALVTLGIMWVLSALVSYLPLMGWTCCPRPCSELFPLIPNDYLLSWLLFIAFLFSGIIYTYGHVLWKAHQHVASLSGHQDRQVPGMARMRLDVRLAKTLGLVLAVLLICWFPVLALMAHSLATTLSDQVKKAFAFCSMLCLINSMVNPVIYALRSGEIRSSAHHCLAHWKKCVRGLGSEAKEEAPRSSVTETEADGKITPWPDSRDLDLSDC
Method: as §1

CCKA = CCKA (Homo sapiens, UniProt P32238); assay: MDS Panlabs screen: cholecystokinin (CCK) CCKA; assay type: binding; conditions: Peptides
Sequence of CCKA (P32238 whole entry): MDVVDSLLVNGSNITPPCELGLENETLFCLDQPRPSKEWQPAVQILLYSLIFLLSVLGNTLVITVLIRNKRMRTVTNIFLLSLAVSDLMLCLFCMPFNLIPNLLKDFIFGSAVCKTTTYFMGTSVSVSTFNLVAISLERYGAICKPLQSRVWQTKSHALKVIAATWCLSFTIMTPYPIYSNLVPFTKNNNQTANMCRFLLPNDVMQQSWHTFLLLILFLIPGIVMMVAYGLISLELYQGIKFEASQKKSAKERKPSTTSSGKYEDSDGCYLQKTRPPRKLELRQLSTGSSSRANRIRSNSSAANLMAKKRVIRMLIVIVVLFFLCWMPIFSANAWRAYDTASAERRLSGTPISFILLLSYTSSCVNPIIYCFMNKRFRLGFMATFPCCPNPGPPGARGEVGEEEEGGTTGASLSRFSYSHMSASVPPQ
Method: as §1

melanocortin MC4 = melanocortin MC4 (Homo sapiens, UniProt P32245); assay: MDS Panlabs screen: melanocortin MC4; assay type: binding; conditions: Peptides
Sequence of melanocortin MC4 (P32245 whole entry): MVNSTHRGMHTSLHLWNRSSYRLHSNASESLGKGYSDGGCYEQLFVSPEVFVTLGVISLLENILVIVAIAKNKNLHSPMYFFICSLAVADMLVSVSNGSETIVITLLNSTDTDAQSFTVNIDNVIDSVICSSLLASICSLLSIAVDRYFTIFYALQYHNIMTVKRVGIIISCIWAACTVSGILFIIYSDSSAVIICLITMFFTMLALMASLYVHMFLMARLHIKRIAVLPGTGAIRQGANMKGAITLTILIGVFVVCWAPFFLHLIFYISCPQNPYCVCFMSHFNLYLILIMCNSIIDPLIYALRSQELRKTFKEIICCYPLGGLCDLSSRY
Method: as §1

neuropeptide Y2 = neuropeptide Y2 (Homo sapiens, UniProt P49146); assay: MDS Panlabs screen: neuropeptide Y2; assay type: binding; conditions: Peptides
Sequence of neuropeptide Y2 (P49146 whole entry): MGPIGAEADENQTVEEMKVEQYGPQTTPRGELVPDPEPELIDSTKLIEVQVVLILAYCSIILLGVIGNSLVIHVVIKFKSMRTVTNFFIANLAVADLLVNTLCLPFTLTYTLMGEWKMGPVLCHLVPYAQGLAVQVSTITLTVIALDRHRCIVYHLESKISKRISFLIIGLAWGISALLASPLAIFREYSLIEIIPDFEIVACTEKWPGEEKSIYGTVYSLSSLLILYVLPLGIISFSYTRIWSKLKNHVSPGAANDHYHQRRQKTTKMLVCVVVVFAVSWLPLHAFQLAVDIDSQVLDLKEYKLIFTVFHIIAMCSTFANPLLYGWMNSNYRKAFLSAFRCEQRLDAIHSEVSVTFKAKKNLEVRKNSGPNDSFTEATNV
Method: as §1

neurotensin = assay: MDS Panlabs screen: neurotensin; assay type: binding; conditions: Peptides
Method: as §1

tachykinin NK2 = tachykinin NK2 (Homo sapiens, UniProt P21452); assay: MDS Panlabs screen: tachykinin NK2; assay type: binding; conditions: Peptides
Sequence of tachykinin NK2 (P21452 whole entry): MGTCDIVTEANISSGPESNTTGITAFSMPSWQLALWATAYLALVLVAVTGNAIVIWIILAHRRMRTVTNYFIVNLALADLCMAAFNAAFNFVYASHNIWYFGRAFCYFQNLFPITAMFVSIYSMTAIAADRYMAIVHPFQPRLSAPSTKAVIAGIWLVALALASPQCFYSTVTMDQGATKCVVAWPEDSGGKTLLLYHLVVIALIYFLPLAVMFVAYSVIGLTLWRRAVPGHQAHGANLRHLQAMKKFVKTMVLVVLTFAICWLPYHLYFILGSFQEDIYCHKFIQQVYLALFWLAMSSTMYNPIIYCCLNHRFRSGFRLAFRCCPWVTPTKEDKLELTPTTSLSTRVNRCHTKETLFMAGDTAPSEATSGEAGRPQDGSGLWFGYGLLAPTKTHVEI
Method: as §1

TNF non-selective = assay: MDS Panlabs screen: TNF non-selective; assay type: binding; conditions: Peptides
Method: as §1

COX-1 = COX-1 (Homo sapiens, UniProt P23219); assay: MDS Panlabs screen: cyclooxygenase COX-1; assay type: biochemical
Method: as §1

interleukin IL-1α = assay: MDS Panlabs screen: interleukin IL-1α; assay type: binding; conditions: Peptides
Method: as §1

[2] = cited from earlier work

SMILES: C=C(C)[C@@H]1CC[C@]2(C(=O)O)CC[C@]3(C)C(CC[C@@H]4[C@@]5(C)CC[C@H](O)C(C)(C)[C@@H]5CC[C@]43C)[C@@H]12 (some centres unmarked) [betulinic acid, Betulinic acid]
- frequency of initiated contact (Sprague-Dawley rats): not significant
- amount of social interaction (interaction time) compared to the control group (Sprague-Dawley rats; data collapsed across 1 h, 2.5 h and 4 h (FIG. 8)): significantly increased the amount of social interaction
- adverse effect on locomotor activity or pattern (Sprague Dawley rats): neither betulinic acid nor the methyl ester of betulinic acid had an adverse effect on locomotor activity or pattern
- non-toxic dose relative to the dose needed to reduce anxiety [1]: 1000 times
- affected by betulinic acid (adrenergic α1): none of the following neurotransmitters or proteins were affected
- affected by betulinic acid (adrenergic α2): none of the following neurotransmitters or proteins were affected
- affected by betulinic acid (COMT): none of the following neurotransmitters or proteins were affected
- affected by betulinic acid (NE transporter): none of the following neurotransmitters or proteins were affected
- affected by betulinic acid (domaine D1): none of the following neurotransmitters or proteins were affected
- affected by betulinic acid (DA transporter): none of the following neurotransmitters or proteins were affected
- affected by betulinic acid (GABA transporter): none of the following neurotransmitters or proteins were affected
- affected by betulinic acid (GABAA, BZP): none of the following neurotransmitters or proteins were affected
- affected by betulinic acid (GABA C1-channel): none of the following neurotransmitters or proteins were affected
- affected by betulinic acid (Histamine H3): none of the following neurotransmitters or proteins were affected
- affected by betulinic acid (5-HT1A): none of the following neurotransmitters or proteins were affected
- affected by betulinic acid (5-HT2): none of the following neurotransmitters or proteins were affected
- affected by betulinic acid (5-HT3): none of the following neurotransmitters or proteins were affected
- affected by betulinic acid (serotonin transporter): none of the following neurotransmitters or proteins were affected
- affected by betulinic acid (muscarinic non-selective): none of the following neurotransmitters or proteins were affected
- affected by betulinic acid (nicototinic): none of the following neurotransmitters or proteins were affected
- affected by betulinic acid (bombesin): none of the following neurotransmitters or proteins were affected
- affected by betulinic acid (cannabinoid CB2): none of the following neurotransmitters or proteins were affected
- affected by betulinic acid (CCKA): none of the following neurotransmitters or proteins were affected
- affected by betulinic acid (melanocortin MC4): none of the following neurotransmitters or proteins were affected
- affected by betulinic acid (neuropeptide Y2): none of the following neurotransmitters or proteins were affected
- affected by betulinic acid (neurotensin): none of the following neurotransmitters or proteins were affected
- affected by betulinic acid (tachykinin NK2): none of the following neurotransmitters or proteins were affected
- affected by betulinic acid (TNF non-selective): none of the following neurotransmitters or proteins were affected
- affected by betulinic acid (COX-1): none of the following neurotransmitters or proteins were affected
- affected by betulinic acid (interleukin IL-1α): none of the following neurotransmitters or proteins were affected
- toxicity in a Hippocratic screen ([2]; 200 mg/kg): non-toxic
- toxicity in a Hippocratic screen ([2]; 400 mg/kg): non-toxic
